From EP0470144B1, “BETA-HYDROXAMATE D-ASPARTIC ACID FOR TREATMENT OF VIRAL INFECTIONS AND TUMOURS” (priority 1989, dated 1990)
Values joined by “and” are separate entries in the source; they are usually repeats but may differ in a detail not shown here. Identical values can stand only once.

Legend:
[1] = Toxicity in dogs (NCI recommendations), intravenous administration; assay type: in vivo, chiens Beagle
Text: En suivant les recommandations du National Cancer Institute (NCI), on a déterminé : a) la dose maximale non toxique, b) la dose toxique faible, c) la dose maximale toxique non léthale, d) la dose léthale.
Ces études ont été réalisées sur des chiens Beagle âgés de six à sept mois et pesant 6,5 à 7,5 kg. Pour mettre en évidence les effets toxiques du DAH, on a mesuré des paramètres cliniques, morphologiques, biochimiques et hématologiques.
L'évaluation de la fréquence cardiaque, l'électrocardiogramme, la pression artérielle (mesurée par cathétérisme intra-artériel), et la fréquence respiratoire ont été mesurées chez des chiens anesthésiés par l'alphachloralose.

FLV = assay: Friend virus (FLV) replication in SC1 cell culture, reverse transcriptase activity in supernatants; assay type: cell-based; settings: SC1 cells infected with FLV
Text: Des cultures de cellules SC1 traitées avec du polybrène ont été infectées avec du FLV (5 x 10⁵ particules infectantes pour 2 x 10⁵ cellules). Les cellules ont ensuite été mises en culture avec diverses concentrations de DAH et l'activité de réplication du FLV a été mesurée par dosage de l'activité transcriptase inverse apparaissant dans les surnageants de milieux de culture aux 2ème, 4ème et 6ème jour après l'infection.

[2] = tested on: lymphocytes de donneurs sains; assay: Growth and cell mortality of uninfected lymphocytes from healthy donors; assay type: cell-based; settings: 0,5-2 mM DAH
Text: Cette inhibition est dose-dépendante. Les essais ont d'abord porté sur des lymphoytes de donneurs sains (Figures 1 et 2). On a pu mettre en évidence cette activité sur deux modèles de réplication du HIV : a) lymphocytes normaux infectés par le virus purifié et b) coculture des lymphocytes des malades du SIDA et de lymphocytes normaux. On a mesuré l'activité transcriptase inverse pendant 22 jours dans le surnageant de cultures cellulaires comme critère de prolifération virale. Le traitement avec le DAH a duré 72 heures de J₀ à J₃ de la manipulation (Figures 3, 4 et 5). […] Par contre, le DAH s'est montré plus toxique vis-à-vis des lymphocytes infectés par le virus du SIDA (Figures 6 et 7).
Effet du DAH sur le taux de croissance de lymphocytes de donneurs sains.
(●) absence de DAH (o) concentration en DAH = 0,5 mM (□) concentration en DAH = 1 mM (△) concentration en DAH = 1,5 mM (◇) concentration en DAH = 2 mM • . En abscisses : temps de culture (en jours) • . En ordonnées : taux de croissance
Effet du DAH sur la mortalité cellulaire de lymphocytes sains.
(●) absence de DAH (o) concentration en DAH = 0,5 mM (□) concentration en DAH = 1 mM (△) concentration en DAH = 1,5 mM (◇) concentration en DAH = 2 mM • . En abscisses : temps de culture (en jours) • . En ordonnées : proportion de cellules mortes (en %)

[3] = Tolerance to prolonged administration in mice (30 days); assay type: in vivo, souris; settings: 2 g/kg once daily or 1 g/kg twice daily
Text: La tolérance à l'administration prolongée du DAH a été évaluée sur un groupe de 10 souris traitées pendant 30 jours à une injection quotidienne de 2 g/kg, et un groupe de 10 souris recevant pendant la même durée deux injections de 1 g/kg par jour. La tolérance a été excellente, sans signe clinique de toxicité, sans décès et avec un poids corporel restant dans un intervalle de +/- 10 % par rapport à un groupe contrôle de même âge et de même poids initial.

[4] = Acute parenteral toxicity in mice (lethal doses); assay type: in vivo, souris B6D2F1; settings: evaluated at 24 hours and 14 days
Text: La toxicité du DAH par voie parentérale a été évaluée chez la souris B6D2F1 âgée de six semaines et pesant entre 20 et 22 g. Pour chaque niveau de dose, on a utilisé treize mâles et treize femelles avec une période d'observation de 14 jours. La dose léthale (DL) a été évaluée 24 heures après l'injection de DAH puis à 14 jours. Dans ces conditions, on a pu montrer que la DL 10 (10 % de mortalité) était observée pour des posologies de 8,5-9 g/kg, la DL 50 correspondait à 11-12 g/kg et la DL 90 à 14-15 g/kg. Il n'a pas été observé de différence significative de mortalité à 24 heures et à 14 jours pour un niveau de dose donné.

[5] = Pre-clinical pharmacology: DAH levels in serum and urine after intraperitoneal injection; assay type: in vivo, souris B6D2F1; settings: 3 g/kg intraperitoneal
Text: Le DAH a été dosé dans les sérums et les urines de souris B6D2F1 âgées de 8 semaines, ayant reçu une injection intrapéritonéale de DAH de 3 g/kg. Le DAH a été dosé par spectrophotométrie par mise en évidence du complexe Fe3+- hydroxamate à 550 nm.

leucémie P388 = assay: Antitumour activity in the P388 leukaemia model, survival; assay type: in vivo, souris B6D2F1; settings: for Nombre d'animaux survivants: at 30 days
Text: L'activité antitumorale du DAH a été aussi étudiée sur deux autres modèles murins : le lymphome L5178Y et la leucémie P388.
Les cellules de la leucémie P388 sont maintenues par passage intrapéritonéaux chez la souris DBA/2 et injectées, pour les essais, à la dose de […] par souris sur la souris B6D2F1.

[6] = tested on: leucémie 1210, lymphome RBL5 et mélanome B16; settings: 600 mg/kg per day for 5 days; cited from earlier work

In the case of `N[C@@H](CC(=O)NO)C(=O)O` [DAH, D-acide aspartique β-hydroxamate], the nadir plaquettes ([1]; 5 g/kg, 8th day after injection, return to pre-treatment level seven to ten days later) is reported as 39 x 109 plaquettes/l, the nadir plaquettes ([1]; 9 g/kg, twenty-two days after injection) is reported as 17 x 109 plaquettes/l and the “récupération partielle (plaquettes)” value ([1]; 9 g/kg, two months later) is reported as 56 x 10⁹/l. The “fréquence cardiaque, électrocardiogramme, pression artérielle, fréquence respiratoire” value ([1]; anaesthetised dogs, intravenous 1 to 5 g/kg) was “aucune modification”, the “dose maximale non toxique” value ([1]; dog, in vivo) was 2,5-3 g/kg and the dose toxique faible ([1]; dog, in vivo) was 5000 mg/kg. The “dose toxique maximale non léthale” value ([1]; dog, in vivo) was roughly 9000 mg/kg, the “toxicité de la fonction rénale ou hépatique” value ([1]; doses up to 9 g/kg) was “Aucune toxicité” and the “toxicité sur les lignées granulo-monocytaires et érythrocytaires” value ([1]; including high doses (9 g/kg)) was “Aucune toxicité”. For the same molecule, the “dose à partir de laquelle une toxicité sur la lignée plaquettaire a été constatée” value ([1]; intravenous) was no less than 5000 mg/kg, the “Effets toxiques d'apparition immédiate” value ([1]; intravenous 1 to 10 g/kg (10 % solution), during administration, with anorexia up to 24 hours) was “vomissements” and the “tolérance à l'administration réitérée” value ([1]; intravenous, two weeks, five weekly injections of 1 g/kg) was “aucun signe d'intolérance autre que des vomissements”. For the same molecule, the “complication rénale” value ([1]; one dog, dose of more than 10 g/kg, avoided later by prehydration) was “précipitation des cristaux de DAH dans les tubules rénaux”, the “activité transcriptase inverse abaissée” value (FLV; DAH 0,2 mM) was roughly 70% and the “activité transcriptase inverse abaissée” value (FLV; DAH 0,5 mM) was 80%. For the same molecule, the “activité transcriptase inverse abaissée” value (FLV; DAH 1 mM) was 90%, the “toxicité pour les lymphocytes non infectés par le virus HIV” value [2] was “n'est pas toxique” and the “poids corporel, intervalle (+/-) par rapport à un groupe contrôle” value [3] was no more than 10%. The “tolérance à l'administration prolongée” value ([3]; no clinical sign of toxicity, no death) was “excellente”, the “DL 10 (10 % de mortalité)” value [4] was 8,5-9 g/kg and 8,5 g/kg and the “DL 50” value [4] was 11 to 12 g/kg. The “DL 90” value [4] was 14 to 15 g/kg, the “modification structurale du DAH éliminé par voie urinaire” value [5] was “aucune modification structurale” and the pic plasmatique moyen [5] was 6 mg/mL. For the same molecule, the pic urinaire [5] was 220 mg/mL, the “temps du pic plasmatique” value [5] was 20 min and the “élimination urinaire prolongée sur” value [5] was 24 heures. The “temps du pic urinaire” value ([5]; after injection) was 250 min, the demi-vie ([5]; decrease of plasma concentration) was 35 min and the T/Cx100 (leucémie P388; 1,5 g/kg x4/j, days 1,2,3) was 155%. For the same molecule, the T/Cx100 (leucémie P388; 1,5 g/kg x 4/j, days 1,2,3,4,5) was 190%, the “Nombre d'animaux survivants” value (leucémie P388; 1,5 g/kg x 4/j, days 1,2,3,4,5) was 0/5 and the “Nombre d'animaux survivants” value (leucémie P388; 1,5 g/kg x4/j, days 1,2,3) was 0/5. For the same molecule, the “activité in vivo sur trois modèles tumoraux murins” value [6] was “aucune activité”.
